Assay results from the supplement of paper PMC10307832.

Key:
Experiment in all cases: relative viability (nuclei count vs DMSO), 5 days (fraction); higher = more cells survive
NCI-H358 = tested on: NCI-H358
Procedure, shortened: (§1)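 Cells from lung cancer lines were seeded into 1536-well plates and, one day later, dosed by pin tool. Treatments were either a single drug or a fixed dose of an anchor drug with five library-drug doses (not always all listed) in √10 steps. After 5 days, nuclei were stained in a one-step fixation (final 0.05% Triton X-100, 1% formaldehyde, 1 ug/ml Hoechst) and counted on 4× images, and relative viability is the treated-to-vehicle nuclei ratio, as the median of duplicate plates.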

EKVX = tested on: EKVX
Procedure, shortened: as §1

NCI-H838 = tested on: NCI-H838
Procedure, shortened: as §1

LOU-NH91 = tested on: LOU-NH91
Procedure, shortened: as §1

NCI-H2023 = tested on: NCI-H2023
Procedure, shortened: as §1

CAL-12T = tested on: CAL-12T
Procedure, shortened: as §1

NCI-H1651 = tested on: NCI-H1651
Procedure, shortened: as §1

NCI-H1437 = tested on: NCI-H1437
Procedure, shortened: as §1

NCI-H460 = tested on: NCI-H460
Procedure, shortened: as §1

NCI-H1563 = tested on: NCI-H1563
Procedure, shortened: as §1

NCI-H1395 = tested on: NCI-H1395
Procedure, shortened: as §1

HCC-366 = tested on: HCC-366
Procedure, shortened: as §1

NCI-H441 = tested on: NCI-H441
Procedure, shortened: as §1

BEN = tested on: BEN
Procedure, shortened: as §1

HCC-15 = tested on: HCC-15
Procedure, shortened: as §1

NCI-H1734 = tested on: NCI-H1734
Procedure, shortened: as §1

NCI-H1975 = tested on: NCI-H1975
Procedure, shortened: as §1

LCLC-103H = tested on: LCLC-103H
Procedure, shortened: as §1

NCI-H1355 = tested on: NCI-H1355
Procedure, shortened: as §1

NCI-H1755 = tested on: NCI-H1755
Procedure, shortened: as §1

NCI-H2085 = tested on: NCI-H2085
Procedure, shortened: as §1

HCC-44 = tested on: HCC-44
Procedure, shortened: as §1

Question: Which results are given for C[C@@H]1CN(CC(=O)Nc2ccc3c(c2)Cc2cccc(-c4cc(=O)cc(N5CCOCC5)o4)c2S3)C[C@H](C)O1 + Cc1nc(NC(=O)N2CCC[C@H]2C(N)=O)sc1-c1ccnc(C(C)(C)C(F)(F)F)c1 [Alpelisib] (partner 2 µM)?
Answer: relative viability (NCI-H358; first compound 0.04 µM): 1.12; relative viability (NCI-H358; first compound 0.1265 µM): 0.859; relative viability (NCI-H358; first compound 0.4 µM): 0.73; relative viability (NCI-H358; first compound 4 µM): 0.491; relative viability (EKVX; first compound 0.04 µM): 0.737; relative viability (EKVX; first compound 0.1265 µM): 0.818; relative viability (EKVX; first compound 0.4 µM): 0.818; relative viability (EKVX; first compound 4 µM): 0.732; relative viability (NCI-H838; first compound 0.04 µM): 0.971; relative viability (NCI-H838; first compound 0.1265 µM): 0.913; relative viability (NCI-H838; first compound 0.4 µM): 0.906; relative viability (NCI-H838; first compound 4 µM): 0.784; relative viability (LOU-NH91; first compound 0.04 µM): 0.756; relative viability (LOU-NH91; first compound 0.1265 µM): 0.72; relative viability (LOU-NH91; first compound 0.4 µM): 0.692; relative viability (LOU-NH91; first compound 4 µM): 0.689; relative viability (NCI-H2023; first compound 0.04 µM): 0.69; relative viability (NCI-H2023; first compound 0.1265 µM): 0.579; relative viability (NCI-H2023; first compound 0.4 µM): 0.407; relative viability (NCI-H2023; first compound 4 µM): 0.473; relative viability (CAL-12T; first compound 0.04 µM): 1.33; relative viability (CAL-12T; first compound 0.1265 µM): 1.37; relative viability (CAL-12T; first compound 0.4 µM): 1.19; relative viability (CAL-12T; first compound 4 µM): 0.841; relative viability (NCI-H1651; first compound 0.04 µM): 0.953; relative viability (NCI-H1651; first compound 0.1265 µM): 0.923; relative viability (NCI-H1651; first compound 0.4 µM): 0.881; relative viability (NCI-H1651; first compound 4 µM): 1.06; relative viability (NCI-H1437; first compound 0.04 µM): 1.04; relative viability (NCI-H1437; first compound 0.1265 µM): 1.01; relative viability (NCI-H1437; first compound 0.4 µM): 0.813; relative viability (NCI-H1437; first compound 4 µM): 0.797; relative viability (NCI-H460; first compound 0.04 µM): 0.517; relative viability (NCI-H460; first compound 0.1265 µM): 0.416; relative viability (NCI-H460; first compound 0.4 µM): 0.355; relative viability (NCI-H460; first compound 4 µM): 0.265; relative viability (NCI-H1563; first compound 0.04 µM): 0.942; relative viability (NCI-H1563; first compound 0.1265 µM): 0.918; relative viability (NCI-H1563; first compound 0.4 µM): 0.748; relative viability (NCI-H1563; first compound 4 µM): 0.753; relative viability (NCI-H1395; first compound 0.04 µM): 0.958; relative viability (NCI-H1395; first compound 0.1265 µM): 1.08; relative viability (NCI-H1395; first compound 0.4 µM): 1.05; relative viability (NCI-H1395; first compound 4 µM): 1.08; relative viability (HCC-366; first compound 0.04 µM): 0.379; relative viability (HCC-366; first compound 0.1265 µM): 0.414; relative viability (HCC-366; first compound 0.4 µM): 0.315; relative viability (HCC-366; first compound 4 µM): 0.368; relative viability (NCI-H441; first compound 0.04 µM): 0.942; relative viability (NCI-H441; first compound 0.4 µM): 0.675; relative viability (NCI-H441; first compound 4 µM): 0.584; relative viability (BEN; first compound 0.04 µM): 1; relative viability (BEN; first compound 0.1265 µM): 0.968; relative viability (BEN; first compound 0.4 µM): 1.03; relative viability (BEN; first compound 4 µM): 1.04; relative viability (HCC-15; first compound 0.04 µM): 0.976; relative viability (HCC-15; first compound 0.1265 µM): 0.881; relative viability (HCC-15; first compound 0.4 µM): 0.826; relative viability (HCC-15; first compound 4 µM): 0.71; relative viability (NCI-H1734; first compound 0.04 µM): 0.759; relative viability (NCI-H1734; first compound 0.1265 µM): 0.673; relative viability (NCI-H1734; first compound 0.4 µM): 0.567; relative viability (NCI-H1734; first compound 4 µM): 0.746; relative viability (NCI-H1975; first compound 0.04 µM): 0.666; relative viability (NCI-H1975; first compound 0.1265 µM): 0.587; relative viability (NCI-H1975; first compound 0.4 µM): 0.551; relative viability (NCI-H1975; first compound 4 µM): 0.438; relative viability (LCLC-103H; first compound 0.04 µM): 1.02; relative viability (LCLC-103H; first compound 0.1265 µM): 0.892; relative viability (LCLC-103H; first compound 0.4 µM): 0.845; relative viability (LCLC-103H; first compound 4 µM): 1.02; relative viability (NCI-H1355; first compound 0.04 µM): 0.856; relative viability (NCI-H1355; first compound 0.1265 µM): 0.759; relative viability (NCI-H1355; first compound 0.4 µM): 0.862; relative viability (NCI-H1355; first compound 4 µM): 0.827; relative viability (NCI-H1755; first compound 0.04 µM): 0.934; relative viability (NCI-H1755; first compound 0.1265 µM): 0.88; relative viability (NCI-H1755; first compound 0.4 µM): 0.845; relative viability (NCI-H1755; first compound 4 µM): 0.863; relative viability (NCI-H2085; first compound 0.04 µM): 0.99; relative viability (NCI-H2085; first compound 0.1265 µM): 0.897; relative viability (NCI-H2085; first compound 0.4 µM): 0.793; relative viability (NCI-H2085; first compound 4 µM): 0.7; relative viability (HCC-44; first compound 0.04 µM): 0.774; relative viability (HCC-44; first compound 0.1265 µM): 0.744; relative viability (HCC-44; first compound 0.4 µM): 0.615; relative viability (HCC-44; first compound 4 µM): 0.582
